Reference: US7053097B1, “Inhibitors of glycogen synthase 3 kinase” (Chiron Corporation, priority 1996, dated 2006)

Target: GSK-3β (Homo sapiens, UniProt P49841)
Experiment: GSK3 kinase inhibition assay, biotin-phosphopeptide substrate, streptavidin plate scintillation counting
Type: biochemical
Settings: compound at 1 μM; 180 min at room temperature
Protocol: (B) The compounds prepared in Example 1 above were assayed for activity as follows:
A 96-well round bottom plate was blocked by incubation with 400 μl/well 1% BSA/PBS for 60 min at room temperature. The blocking reagent was then aspirated. An enzyme/substrate buffer was prepared (1.225 ml 1M Tris-HCl, pH 7.5, 0.41 ml 1M MgCl2, 41 μl DTT, 250 μl 500 μg/ml GSK-3β, 9.5 μl 5 mg/ml biotin-phosphopeptide, 33.1 ml 1% BSA/PBS), and 300 μl enzyme/substrate/buffer was added to each well.
Varying concentrations of each compound were added to individual wells, or staurosporine in DMSO (final concentrations of staurosporine 100 nM or 20 nM). Next 50 μl/well ATP mixture (3.85 μl 10 mM cold ATP, 8 μl hot ATP, 5.5 ml H2O) was added, and the reaction allowed to proceed for 180 min at room temperature.
Three streptavidin-coated Labsystems Combiplate 8 plates were blocked with 1% BSA/PBS, 300 μl/well, for ≧60 min at room temperature, and the blocking reagent aspirated. Stopping reagent (50 μM ATP, 20 mM EDTA) (100 μl/well) was added to the streptavidin-coated plates, and 100 μl of the enzyme reaction mixture transferred to the streptavidin-coated plates in triplicate. […] Finally, Microscint-20 scintillation fluid (200 μl/well) was added to the plates, the plates sealed, and after incubating for 30 min, counted on a TopCount counter.

Sequence of GSK-3β (P49841 whole entry, species assumed): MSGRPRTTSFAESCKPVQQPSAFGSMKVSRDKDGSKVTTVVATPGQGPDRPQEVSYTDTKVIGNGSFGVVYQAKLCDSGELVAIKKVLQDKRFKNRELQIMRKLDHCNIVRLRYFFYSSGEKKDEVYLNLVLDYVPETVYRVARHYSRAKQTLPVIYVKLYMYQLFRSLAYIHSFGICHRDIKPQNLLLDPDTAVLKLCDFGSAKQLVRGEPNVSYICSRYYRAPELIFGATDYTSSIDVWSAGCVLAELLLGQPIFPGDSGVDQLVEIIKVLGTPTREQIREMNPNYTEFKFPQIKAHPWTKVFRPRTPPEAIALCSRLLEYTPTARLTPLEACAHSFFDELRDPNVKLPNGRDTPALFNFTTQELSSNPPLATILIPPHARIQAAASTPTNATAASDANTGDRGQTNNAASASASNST

- inhibition at 1 µM: 63%
SMILES: COCC(=O)N(CC(N)=O)c1nc(NCc2ccc(C(F)(F)F)cc2)c2ncn(C)c2n1 [Compound 21208]
